From article PMC10350928 (Journal of Medicinal Chemistry, 2023)
Like-named read-outs stand apart in the source and are kept apart here.

Legend:
[1] = test system: Rat hepatocytes; assay: Rat hepatocyte Clint; conditions: for RH: rat hepatocytes; for Hepatocytes Rat: Table 4
[2] = target: T1, WT c-MET (Homo sapiens, UniProt P08581); assay type: binding; conditions: Table 1; LLE = pKd – log D
[3] = target: T1, WT c-MET; assay type: biochemical; conditions: LLE = pIC50 – log D
[4] = test system: c-MET; conditions: read-out: cell IC50 c-MET; cited from earlier work
[5] = test system: RON; conditions: read-out: cell IC50 RON; cited from earlier work
[6] = Human liver microsome Clint
[7] = Rat plasma pharmacokinetics; conditions: male, Han Wistar, iv, 0.5 mg/kg
[8] = test system: Human hepatocytes; assay: Human hepatocyte Clint; conditions: Table 4
[9] = target: T1, WT c-MET; assay type: binding; conditions: adenosine 500 μM, WT c-MET 7.4 μM, compound 100 μM
[10] = Table 3, human liver microsomes

O=c1[nH]c(=O)n(Cc2ccccc2)cc1-c1cc(F)cc(F)c1 [Compound 4, 1-Benzyl-5-(3,5-difluorophenyl)pyrimidine-2,4(1H,3H)-dione]
RH ([1]; Table 1): 76.7 μL/min/10^6 cells | SPR assay LLE WT [2]: <1.0/<1.0

C#Cc1n[nH]c2c(-c3cn([C@@H](C)c4ccccc4)c(=O)[nH]c3=O)cc(F)cc12 [Compound 30, (S)-5-(3-Ethynyl-5-fluoro-1H-indazol-7-yl)-1-(1-phenylethyl)pyrimidine-2,4(1H,3H)-dione]
RH ([1]; Table 3): 15.0 μL/min/10^6 cells

CC(c1ccccc1)n1cc(-c2cccc3c(C#N)n[nH]c23)c(=O)[nH]c1=O (centres unmarked) [Compound 19, 7-(2,4-Dioxo-1-(1-phenylethyl)-1,2,3,4-tetrahydropyrimidin-5-yl)-1H-indazole-3-carbonitrile]
ADP-Glo assay LLE WT ([3]; Table 2): 3.4 | RH ([1]; Table 2): 41.4 μL/min/10^6 cells

C#Cc1n[nH]c2c(-c3cn(C(C)c4ccccc4)c(=O)[nH]c3=O)cccc12 (centres unmarked) [Compound 28, 5-(3-Ethynyl-1H-indazol-7-yl)-1-(1-phenylethyl)pyrimidine-2,4(1H,3H)-dione]
ADP-Glo assay LLE WT ([3]; Table 3): 4.2 | RH ([1]; Table 3): 9.10 μL/min/10^6 cells

CC(c1ccccn1)n1cc(-c2cc(F)cc3c(C#N)n[nH]c23)c(=O)[nH]c1=O (centres unmarked) [Compound 23, 7-(2,4-Dioxo-1-(1-(pyridin-2-yl)ethyl)-1,2,3,4-tetrahydropyrimidin-5-yl)-5-fluoro-1H-indazole-3-carbonitrile]
ADP-Glo assay LLE WT ([3]; Table 3): 3.8 | RH ([1]; Table 3): 3.08 μL/min/10^6 cells

CC(c1ccccc1)n1cc(-c2ccccn2)c(=O)[nH]c1=O (centres unmarked) [Compound 12, 1-(1-Phenylethyl)-5-(pyridin-2-yl)pyrimidine-2,4(1H,3H)-dione]
RH ([1]; Table 1): 300 μL/min/10^6 cells | SPR assay LLE WT [2]: 3.2

CC(c1ccccc1)n1cc(-c2cc(F)cc3cn[nH]c23)c(=O)[nH]c1=O (centres unmarked) [Compound 21, 5-(5-Fluoro-1H-indazol-7-yl)-1-(1-phenylethyl)pyrimidine-2,4(1H,3H)-dione]
ADP-Glo assay LLE WT ([3]; Table 2): 3.9 | RH ([1]; Table 2): 14.0 μL/min/10^6 cells

CC(c1ccccc1Cl)n1cc(-c2cc(F)cc(F)c2)c(=O)[nH]c1=O (centres unmarked) [Compound 5, 1-(1-(2-Chlorophenyl)ethyl)-5-(3,5-difluorophenyl)pyrimidine-2,4(1H,3H)-dione]
RH ([1]; Table 1): 227 μL/min/10^6 cells | SPR assay LLE WT [2]: 0.82

C#Cc1n[nH]c2c(-c3cn([C@@H](C)c4ccccn4)c(=O)[nH]c3=O)cc(F)cc12 [Compound 32, (S)-5-(3-Ethynyl-5-fluoro-1H-indazol-7-yl)-1-(1-(pyridin-2-yl)ethyl)pyrimidine-2,4(1H,3H)-dione]
ADP-Glo assay LLE WT ([3]; Table 3): 5.1 | RH ([1]; Table 3): 6.07 μL/min/10^6 cells

C[C@@H](c1ccccc1)n1cc(-c2cc(F)cc(F)c2)c(=O)[nH]c1=O [Compound 3, (S)-5-(3,5-Difluorophenyl)-1-(1-phenylethyl)pyrimidine-2,4(1H,3H)-dione]
RH ([1]; Table 1): 133 μL/min/10^6 cells | SPR assay LLE WT [2]: 2.9

C#Cc1n[nH]c2c(-c3cn(C(C)c4ccccn4)c(=O)[nH]c3=O)cc(F)cc12 (centres unmarked) [Compound 31, 5-(3-Ethynyl-5-fluoro-1H-indazol-7-yl)-1-(1-(pyridin-2-yl)ethyl)pyrimidine-2,4(1H,3H)-dione]
HLM [6, 10]: <3.00 µL/min/mg | HLM ([6]; Table 4): <3.00 µL/min/mg | ADP-Glo assay LLE WT ([3]; Table 3): 4.8 | clearance [7]: 13 mL/min/kg | Hepatocytes Human [8]: 1.29 μL/min/10^6 cells | RH ([1]; Table 3): 4.81 μL/min/10^6 cells | Hepatocytes Rat [1]: 4.81 μL/min/10^6 cells

CC(c1cccc(-c2c[nH]cn2)c1)n1cc(-c2cc(F)cc(F)c2)c(=O)[nH]c1=O (centres unmarked) [Compound 10, 1-(1-(3-(1H-Imidazol-5-yl)phenyl)ethyl)-5-(3,5-difluorophenyl)pyrimidine-2,4(1H,3H)-dione]
RH ([1]; Table 1): 6.03 μL/min/10^6 cells | SPR assay LLE WT [2]: 3.1

C#Cc1n[nH]c2c(-c3cn(C(C)c4ccccc4)c(=O)[nH]c3=O)cc(F)cc12 (centres unmarked) [Compound 29, 5-(3-Ethynyl-5-fluoro-1H-indazol-7-yl)-1-(1-phenylethyl)pyrimidine-2,4(1H,3H)-dione]
HLM [6, 10]: 12.2 µL/min/mg | HLM ([6]; Table 4): 12.2 µL/min/mg | clearance [7]: 60 mL/min/kg | Hepatocytes Human [8]: 4.27 μL/min/10^6 cells | RH ([1]; Table 3): 5.99 μL/min/10^6 cells | Hepatocytes Rat [1]: 5.99 μL/min/10^6 cells

CC(c1ccccc1)n1cc(-c2cc(F)cc3c(C#N)n[nH]c23)c(=O)[nH]c1=O (centres unmarked) [Compound 22, 7-(2,4-Dioxo-1-(1-phenylethyl)-1,2,3,4-tetrahydropyrimidin-5-yl)-5-fluoro-1H-indazole-3-carbonitrile]
ADP-Glo assay LLE WT ([3]; Table 2): 3.8 | RH ([1]; Table 2): 51.4 μL/min/10^6 cells

CC(c1ccc(F)cc1)n1cc(-c2cc(F)cc3cn[nH]c23)c(=O)[nH]c1=O (centres unmarked) [Compound 26, 5-(5-Fluoro-1H-indazol-7-yl)-1-(1-(4-fluorophenyl)ethyl)pyrimidine-2,4(1H,3H)-dione]
ADP-Glo assay LLE WT ([3]; Table 3): 3.5 | RH ([1]; Table 3): 11.9 μL/min/10^6 cells

Cc1n[nH]c2c(-c3cn(C(C)c4ccccc4)c(=O)[nH]c3=O)cccc12 (centres unmarked) [Compound 18, 5-(3-Methyl-1H-indazol-7-yl)-1-(1-phenylethyl)pyrimidine-2,4(1H,3H)-dione]
ADP-Glo assay LLE WT ([3]; Table 2): 3.6 | RH ([1]; Table 2): 37.0 μL/min/10^6 cells

CC(c1ccccc1)n1cc(-c2cccc3c(F)n[nH]c23)c(=O)[nH]c1=O (centres unmarked) [Compound 17, 5-(3-Fluoro-1H-indazol-7-yl)-1-(1-phenylethyl)pyrimidine-2,4(1H,3H)-dione]
ADP-Glo assay LLE WT ([3]; Table 2): 3.1 | RH ([1]; Table 2): 49.4 μL/min/10^6 cells

CC(c1cccc(-c2cn[nH]c2)c1)n1cc(-c2cc(F)cc(F)c2)c(=O)[nH]c1=O (centres unmarked) [Compound 9, 1-(1-(3-(1H-Pyrazol-4-yl)phenyl)ethyl)-5-(3,5-difluorophenyl)pyrimidine-2,4(1H,3H)-dione]
RH ([1]; Table 1): 22.3 μL/min/10^6 cells | SPR assay LLE WT [2]: 2.7

CC(c1ccccc1)n1cc(-c2ccc3[nH]ccc3c2)c(=O)[nH]c1=O (centres unmarked) [Compound 14, 5-(1H-Indol-5-yl)-1-(1-phenylethyl)pyrimidine-2,4(1H,3H)-dione]
RH ([1]; Table 1): 217 μL/min/10^6 cells | SPR assay LLE WT [2]: 3.4/3.4

CC(c1cccc(Cl)c1)n1cc(-c2cc(F)cc(F)c2)c(=O)[nH]c1=O (centres unmarked) [Compound 7, 1-(1-(3-Chlorophenyl)ethyl)-5-(3,5-difluorophenyl)pyrimidine-2,4(1H,3H)-dione]
RH ([1]; Table 1): 177 μL/min/10^6 cells | SPR assay LLE WT [2]: 2.2

CC(c1cccc(-c2c[nH]cn2)c1)n1cc(-c2cccc3cn[nH]c23)c(=O)[nH]c1=O (centres unmarked) [Compound 16, 1-(1-(3-(1H-Imidazol-5-yl)phenyl)ethyl)-5-(1H-indazol-7-yl)pyrimidine-2,4(1H,3H)-dione]
RH ([1]; Table 1): 5.84 μL/min/10^6 cells | SPR assay LLE WT [2]: 4.1

CC(c1cccc(-c2cc[nH]n2)c1)n1cc(-c2cc(F)cc(F)c2)c(=O)[nH]c1=O (centres unmarked) [Compound 8, 1-(1-(3-(1H-Pyrazol-3-yl)phenyl)ethyl)-5-(3,5-difluorophenyl)pyrimidine-2,4(1H,3H)-dione]
RH ([1]; Table 1): 24.7 μL/min/10^6 cells | SPR assay LLE WT [2]: 2.1

CC(c1ccccc1)n1cc(-c2ncccn2)c(=O)[nH]c1=O (centres unmarked) [Compound 13, 1′-(1-Phenylethyl)-[2,5′-bipyrimidine]-2′,4′(1′H,3′H)-dione]
RH ([1]; Table 1): 4.67 μL/min/10^6 cells

CC(c1ccc(F)cc1)n1cc(-c2cc(F)cc3c(C#N)n[nH]c23)c(=O)[nH]c1=O (centres unmarked) [Compound 24, 5-Fluoro-7-(1-(1-(4-fluorophenyl)ethyl)-2,4-dioxo-1,2,3,4-tetrahydropyrimidin-5-yl)-1H-indazole-3-carbonitrile]
ADP-Glo assay LLE WT ([3]; Table 3): 3.4 | RH ([1]; Table 3): 4.40 μL/min/10^6 cells

CC(c1ccccc1)n1cc(-c2cccc3cn[nH]c23)c(=O)[nH]c1=O (centres unmarked) [Compound 15, 5-(1H-Indazol-7-yl)-1-(1-phenylethyl)pyrimidine-2,4(1H,3H)-dione]
ADP-Glo assay LLE WT ([3]; Table 2): 3.5 | RH ([1]; Table 1): 46.1 μL/min/10^6 cells | SPR assay LLE WT [2]: 4.2

CC(c1ccccc1)n1cc(-c2ccccc2)c(=O)[nH]c1=O (centres unmarked) [Compound 11, 5-Phenyl-1-(1-phenylethyl)pyrimidine-2,4(1H,3H)-dione]
RH ([1]; Table 1): 185 μL/min/10^6 cells

C[C@@H](c1ccc(F)cc1)n1cc(-c2cc(F)cc3c(C#N)n[nH]c23)c(=O)[nH]c1=O [Compound 25, (S)-5-Fluoro-7-(1-(1-(4-fluorophenyl)ethyl)-2,4-dioxo-1,2,3,4-tetrahydropyrimidin-5-yl)-1H-indazole-3-carbonitrile]
ADP-Glo assay LLE WT ([3]; Table 3): 3.8 | clearance [7]: 3 mL/min/kg | Hepatocytes Human [8]: 2.48 μL/min/10^6 cells | RH ([1]; Table 3): 5.13 μL/min/10^6 cells | Hepatocytes Rat [1]: 5.13 μL/min/10^6 cells

CC(c1ccccc1)n1cc(-c2c(F)ccc3cn[nH]c23)c(=O)[nH]c1=O (centres unmarked) [Compound 20, 5-(6-Fluoro-1H-indazol-7-yl)-1-(1-phenylethyl)pyrimidine-2,4(1H,3H)-dione]
ADP-Glo assay LLE WT ([3]; Table 2): 3.2 | RH ([1]; Table 2): 28.3 μL/min/10^6 cells

CC(c1ccccc1)n1cc(-c2cc(F)cc(F)c2)c(=O)[nH]c1=O (centres unmarked) [Compound 2, 5-(3,5-Difluorophenyl)-1-(1-phenylethyl)pyrimidine-2,4(1H,3H)-dione]
competition with adenosine for binding to WT c-MET [9]: clear competition | RH ([1]; Table 1): 123 μL/min/10^6 cells | SPR assay LLE WT [2]: 2.4
